Measurements reported in patent US12617813B2, “Glycosylated histone deacetylase inhibitors and methods of making and using the same” (Georgia Tech Research Corporation, priority 2020, dated 2026).

How the values were obtained:
HDAC2 = HDAC2 (Homo sapiens, UniProt Q92769); test: HDAC inhibition, HDAC2; format: biochemical
HDAC1 = HDAC1 (Homo sapiens, UniProt Q13547); test: HDAC inhibition, HDAC1; format: biochemical
HDAC8 = target: T1, HDAC8 (Homo sapiens, UniProt Q9BY41); test: HDAC inhibition, HDAC8; format: biochemical
T1 sequence (Q9BY41 1-377): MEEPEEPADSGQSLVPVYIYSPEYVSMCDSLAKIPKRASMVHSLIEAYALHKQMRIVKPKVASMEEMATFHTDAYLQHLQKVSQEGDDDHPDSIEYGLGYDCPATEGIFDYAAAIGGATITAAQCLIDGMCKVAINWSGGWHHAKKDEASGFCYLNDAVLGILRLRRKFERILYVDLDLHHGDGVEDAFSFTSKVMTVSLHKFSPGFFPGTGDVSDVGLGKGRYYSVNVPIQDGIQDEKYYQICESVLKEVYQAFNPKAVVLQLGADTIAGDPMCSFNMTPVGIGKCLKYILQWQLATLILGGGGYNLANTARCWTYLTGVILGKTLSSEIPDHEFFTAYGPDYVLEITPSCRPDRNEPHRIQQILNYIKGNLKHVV

HDAC6 = target: T2, HDAC6 (Homo sapiens, UniProt Q9UBN7); test: HDAC inhibition, HDAC6; format: biochemical
T2 sequence (Q9UBN7 1-1215): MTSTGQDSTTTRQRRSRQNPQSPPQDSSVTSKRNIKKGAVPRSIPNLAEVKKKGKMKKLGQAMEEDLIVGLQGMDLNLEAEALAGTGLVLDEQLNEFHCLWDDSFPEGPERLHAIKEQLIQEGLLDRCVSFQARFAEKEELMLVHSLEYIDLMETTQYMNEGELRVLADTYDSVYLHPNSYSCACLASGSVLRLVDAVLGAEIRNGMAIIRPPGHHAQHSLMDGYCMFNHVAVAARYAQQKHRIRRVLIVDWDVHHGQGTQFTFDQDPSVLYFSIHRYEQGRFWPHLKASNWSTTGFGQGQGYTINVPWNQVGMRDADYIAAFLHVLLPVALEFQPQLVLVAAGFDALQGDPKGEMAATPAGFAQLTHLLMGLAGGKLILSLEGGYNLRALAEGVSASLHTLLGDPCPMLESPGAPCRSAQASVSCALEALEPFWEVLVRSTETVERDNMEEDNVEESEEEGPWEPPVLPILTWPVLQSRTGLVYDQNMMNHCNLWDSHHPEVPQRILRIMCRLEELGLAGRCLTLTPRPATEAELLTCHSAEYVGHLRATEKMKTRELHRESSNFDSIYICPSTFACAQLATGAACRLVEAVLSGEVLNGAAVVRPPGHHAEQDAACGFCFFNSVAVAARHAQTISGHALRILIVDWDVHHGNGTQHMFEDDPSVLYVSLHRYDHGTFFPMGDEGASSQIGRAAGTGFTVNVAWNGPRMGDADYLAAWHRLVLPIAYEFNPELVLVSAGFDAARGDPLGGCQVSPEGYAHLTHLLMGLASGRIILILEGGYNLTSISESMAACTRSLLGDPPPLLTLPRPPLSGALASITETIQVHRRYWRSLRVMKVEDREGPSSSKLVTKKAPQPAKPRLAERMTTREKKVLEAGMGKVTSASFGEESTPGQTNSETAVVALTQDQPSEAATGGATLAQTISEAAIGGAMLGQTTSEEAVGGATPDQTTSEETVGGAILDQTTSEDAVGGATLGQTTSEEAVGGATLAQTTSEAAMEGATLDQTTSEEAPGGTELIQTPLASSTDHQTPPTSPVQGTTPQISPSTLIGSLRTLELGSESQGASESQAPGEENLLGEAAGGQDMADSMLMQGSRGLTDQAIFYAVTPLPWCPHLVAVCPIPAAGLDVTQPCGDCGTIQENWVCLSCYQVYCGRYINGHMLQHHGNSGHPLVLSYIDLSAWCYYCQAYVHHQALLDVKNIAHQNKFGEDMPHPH

Hep-G2 = test: Cell growth inhibition, Hep-G2; format: cell-based; conditions: Homo sapiens, HepG2, NI = No Inhibition at 100 uM
A549 = test: Cell growth inhibition, A549; format: cell-based; conditions: Homo sapiens, NI = No Inhibition at 100 uM
VERO = test: Cell growth inhibition, VERO; format: cell-based; conditions: Chlorocebus sabaeus, NI = No Inhibition at 100 uM

Chain of HDAC1 (Q13547 whole entry): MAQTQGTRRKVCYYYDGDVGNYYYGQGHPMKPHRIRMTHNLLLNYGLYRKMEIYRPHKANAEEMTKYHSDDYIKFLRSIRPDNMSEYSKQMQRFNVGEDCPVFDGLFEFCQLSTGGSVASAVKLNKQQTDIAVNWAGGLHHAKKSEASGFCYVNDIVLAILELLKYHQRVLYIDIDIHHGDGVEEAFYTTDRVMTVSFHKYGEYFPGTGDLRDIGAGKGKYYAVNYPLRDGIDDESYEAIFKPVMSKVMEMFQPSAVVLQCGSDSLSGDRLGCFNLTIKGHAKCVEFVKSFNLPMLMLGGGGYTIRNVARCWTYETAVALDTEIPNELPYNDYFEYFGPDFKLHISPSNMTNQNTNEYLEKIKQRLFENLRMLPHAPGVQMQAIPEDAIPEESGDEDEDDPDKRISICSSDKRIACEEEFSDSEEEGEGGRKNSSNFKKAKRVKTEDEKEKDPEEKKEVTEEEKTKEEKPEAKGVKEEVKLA
Chain of HDAC2 (Q92769 whole entry): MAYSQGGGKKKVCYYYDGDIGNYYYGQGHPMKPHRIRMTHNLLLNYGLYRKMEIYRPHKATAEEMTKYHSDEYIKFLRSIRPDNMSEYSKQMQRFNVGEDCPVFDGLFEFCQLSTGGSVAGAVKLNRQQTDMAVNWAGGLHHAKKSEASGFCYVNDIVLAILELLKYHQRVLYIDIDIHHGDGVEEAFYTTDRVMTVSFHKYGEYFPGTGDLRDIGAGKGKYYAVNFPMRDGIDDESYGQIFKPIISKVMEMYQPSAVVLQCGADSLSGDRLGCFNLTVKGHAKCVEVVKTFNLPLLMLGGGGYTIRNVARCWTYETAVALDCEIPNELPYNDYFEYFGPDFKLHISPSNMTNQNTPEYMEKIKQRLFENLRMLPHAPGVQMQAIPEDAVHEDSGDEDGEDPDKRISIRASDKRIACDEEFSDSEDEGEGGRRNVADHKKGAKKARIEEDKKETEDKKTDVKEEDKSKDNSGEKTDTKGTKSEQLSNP

Row | Compound | IC50 (HDAC2) | IC50 (HDAC1) | IC50 (HDAC8) | IC50 (HDAC6) | IC50 (Hep-G2) | IC50 (A549) | IC50 (VERO)
1 | CC(=O)OC[C@H]1OC(Oc2ccc(-c3cn(CCCCCCC(=O)NO)nn3)cc2)C(OC(C)=O)[C@@H](OC(C)=O)[C@@H]1OC(C)=O (stereo in doubt) [STR-V-176, (2R,3R,4S,5R,6S)-2-(acetoxymethyl)-6-(4-(1-(7-(hydroxyamino)-7-oxoheptyl)-1H-1,2,3-triazol-4-yl)phenoxy)tetrahydro-2H-pyran-3,4,5-triyl triacetate] | 4.2 nM | 1.43 nM | 271 nM | 1.05 nM |  |  | 
2 | CC(=O)OC[C@H]1OC(Oc2ccc3cc(-c4cn(CCCCCCC(=O)NO)nn4)ccc3c2)C(OC(C)=O)[C@@H](OC(C)=O)[C@@H]1OC(C)=O (stereo in doubt) [STR-V-177, (2R,3R,4S,5R,6S)-2-(acetoxymethyl)-6-((6-(1-(7-(hydroxyamino)-7-oxoheptyl)-1H-1,2,3-triazol-4-yl)naphthalen-2-yl)oxy)tetrahydro-2H-pyran-3,4,5-triyl triacetate] | 13.2 nM | 2.2 nM | 718 nM | 1.65 nM |  |  | 
3 | O=C(CCCCCCn1cc(-c2ccc(O[C@H]3O[C@H](CO)[C@@H](O)[C@H](O)[C@H]3O)cc2)nn1)NO [Compound 2] |  |  |  |  | 10.4 ± 0.6 µM | 100 ± 0.1 µM | 76.4 ± 0.2 µM
4 | O=C(CCCCCCn1cc(-c2ccc3cc(O[C@H]4O[C@H](CO)[C@@H](O)[C@H](O)[C@H]4O)ccc3c2)nn1)NO [Compound 3] |  |  |  |  | 6.7 ± 1.6 µM | 77.2 ± 4.3 µM | 34.1 ± 3 µM
5 | CC(=O)OC[C@H]1O[C@H](Oc2ccc3cc(-c4cn(CCCCCCC(=O)NO)nn4)ccc3c2)[C@@H](OC(C)=O)[C@@H](OC(C)=O)[C@@H]1OC(C)=O [Compound 6] |  |  |  |  | 7.4 ± 0.9 µM | 39.6 ± 0.6 µM | 19.2 ± 0.9 µM
6 | O=C(CCCCCn1cc(-c2ccc3cc(O[C@H]4O[C@H](CO)[C@@H](O)[C@H](O)[C@@H]4O)ccc3c2)nn1)NO [Compound 9] |  |  |  |  | 13.5 ± 2.7 µM | 66.7 ± 16.1 µM | > 100 µM
7 | O=C(/C=C/c1ccc(O[C@H]2O[C@H](CO)[C@@H](O)[C@H](O)[C@H]2O)cc1)NO [Compound 12] |  |  |  |  | 45.3 ± 5.9 µM | > 100 µM | > 100 µM
8 | Nc1ccc(F)cc1NC(=O)CCCCCCn1cc(-c2ccc(O[C@H]3O[C@H](CO)[C@@H](O)[C@H](O)[C@H]3O)cc2)nn1 [Compound 14] |  |  |  |  |  | 59.9 µM | > 100 µM
9 | Nc1cc(F)ccc1NC(=O)CCCCCCn1cc(-c2ccc(O[C@H]3O[C@H](CO)[C@@H](O)[C@H](O)[C@H]3O)cc2)nn1 [Compound 15] |  |  |  |  | ~100 µM | > 100 µM | > 100 µM
10 | O=C(CCCCCCn1cc(-c2ccc(O)cc2)nn1)NO [STR-V-183, N-hydroxy-7-(4-(4-hydroxyphenyl)-11-1-1,2,3-triazol-1-yl)heptanamide, reference compound] | 27.2 nM | 12.2 nM | 1960 nM | 1.05 nM |  |  | 
11 | (2R,3R,4S,5R,6R)-2-(acetoxymethyl)-6-(4-(1-(7-(((tert-butyldiphenylsilyl)oxy)-amino)-7-oxoheptyl)-1H-1,2,3-triazol-4-yl)phenoxy)tetrahydro-2H-pyran-3,4,5-triyl triacetate [STR-V-167] | 66.4 nM | 31.8 nM | 311 nM | 2.61 nM |  |  | 
12 | (2S,3R,4S,6R)-4-(dimethylamino)-2-(4-(1-(7-(hydroxyamino)-7-oxoheptyl)-1H-1,2,3-triazol-4-yl)phenoxy)-6-methyltetrahydro-2H-pyran-3-yl acetate [STR-V-165] | 27.5 nM | 10.3 nM | 806 nM | 5.22 nM |  |  | 

Second part, led by results:

Row | IC50 (HDAC2) | IC50 (HDAC1) | IC50 (HDAC8) | IC50 (HDAC6) | IC50 (Hep-G2) | IC50 (A549) | Compound | IC50 (VERO)
13 |  |  |  |  | 10.1 ± 1.2 µM | > 100 µM | CC(=O)OC[C@H]1O[C@H](Oc2ccc(-c3cn(CCCCCCC(=O)NO)nn3)cc2)[C@H](OC(C)=O)[C@@H](OC(C)=O)[C@@H]1OC(C)=O [Compound 1] | > 100 µM
14 |  |  |  |  | 8 ± 0.9 µM | 64.7 ± 7 µM | CC(=O)OC[C@H]1O[C@H](Oc2ccc(-c3cn(CCCCCCC(=O)NO)nn3)cc2)[C@@H](OC(C)=O)[C@@H](OC(C)=O)[C@@H]1OC(C)=O [Compound 4] | 77.4 ± 5.6 µM
15 |  |  |  |  | 22.3 ± 2 µM | > 100 µM | O=C(CCCCCCn1cc(-c2ccc(O[C@H]3O[C@H](CO)[C@@H](O)[C@H](O)[C@@H]3O)cc2)nn1)NO [Compound 5] | 65.5 ± 8.3 µM
16 |  |  |  |  | 7.5 ± 0.8 µM | 20.1 ± 1.1 µM | O=C(CCCCCCn1cc(-c2ccc3cc(O[C@H]4O[C@H](CO)[C@@H](O)[C@H](O)[C@@H]4O)ccc3c2)nn1)NO [Compound 7] | 33.6 ± 5.5 µM
17 |  |  |  |  | 66.1 µM | > 100 µM | O=C(/C=C/c1ccc2cc(O[C@H]3O[C@H](CO)[C@@H](O)[C@H](O)[C@H]3O)ccc2c1)NO [Compound 8] | 82.1 µM
18 |  |  |  |  | 42.8 ± 0.5 µM | > 100 µM | O=C(CCCCCn1cc(-c2ccc(O[C@H]3O[C@H](CO)[C@@H](O)[C@H](O)[C@@H]3O)cc2)nn1)NO [Compound 10] | > 100 µM
19 |  |  |  |  | 78.5 ± 11.6 µM | > 100 µM | O=C(/C=C/c1ccc2cc(O[C@H]3O[C@H](CO)[C@@H](O)[C@H](O)[C@@H]3O)ccc2c1)NO [Compound 11] | > 100 µM
20 |  |  |  |  | 9.6 ± 3.4 µM | 33.7 ± 1.8 µM | C[C@H]1C[C@@H](N(C)C)[C@H](O)C(Oc2ccc(-c3cn(CCCCCCC(=O)NO)nn3)cc2)O1 (stereo partly drawn) [Compound 13] | 76.4 µM
21 |  |  |  |  | > 100 µM | 49.5 µM | Nc1ccc(-c2cccs2)cc1NC(=O)CCCCCCn1cc(-c2ccc(O[C@H]3O[C@H](CO)[C@@H](O)[C@H](O)[C@H]3O)cc2)nn1 [Compound 16] | > 100 µM
22 | 146 nM | 68.2 nM | 3590 nM | 6.45 nM |  |  | O=C(CCCCCn1cc(-c2ccc(O[C@H]3O[C@H](CO)[C@@H](O)[C@H](O)[C@@H]3O)cc2)nn1)NO [STR-II-29] | 
23 | 47.1 nM | 26.8 nM | 1970 nM | 2.03 nM |  |  | O=C(CCCCCn1cc(-c2ccc3cc(O[C@H]4O[C@H](CO)[C@@H](O)[C@H](O)[C@@H]4O)ccc3c2)nn1)NO [STR-II-35] | 
24 | 10.4 nM | 3.28 nM | 319 nM | 0.719 nM |  |  | O=C(CCCCCCn1cc(-c2ccc3cc(O[C@H]4O[C@H](CO)[C@@H](O)[C@H](O)[C@@H]4O)ccc3c2)nn1)NO [STR-II-36] | 
25 | 1030 nM | 427 nM | 461 nM | 16.5 nM |  |  | O=C(/C=C/c1ccc2cc(O[C@H]3O[C@H](CO)[C@@H](O)[C@H](O)[C@H]3O)ccc2c1)NO [STR-V-115] | 
26 | 6500 nM | 3840 nM | 1820 nM | 75.4 nM |  |  | O=C(/C=C/c1ccc(O[C@H]2O[C@H](CO)[C@@H](O)[C@H](O)[C@H]2O)cc1)NO [STR-V-121] | 
